Reference: patent US7795290B2 (Genentech, Inc., priority 2004, dated 2010)

These molecules were tested against T1, AKT1 (Homo sapiens, UniProt P31749) (assay: HTS ATP-utilizing enzyme assay, off-chip mobility-shift (Caliper HTS 250)). Details: kinase named = inhibitory activity/selectivity; test compound 10 μM; active = greater than three-sigma from mean.
T1 construct: purchased Upstate 14-276
Format: biochemical
Procedure, shortened: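 AKT1 activity was measured by off-chip mobility shift (Caliper HTS 250) as the ratio of peptide substrate to phosphorylated product. Test compound was at 10 μM, with 2.5 h incubation at 20–22° C. EDTA wells served as 100% control and DMSO wells as 0%. Hits were called at three-sigma limits.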

T1 sequence (P31749 whole entry): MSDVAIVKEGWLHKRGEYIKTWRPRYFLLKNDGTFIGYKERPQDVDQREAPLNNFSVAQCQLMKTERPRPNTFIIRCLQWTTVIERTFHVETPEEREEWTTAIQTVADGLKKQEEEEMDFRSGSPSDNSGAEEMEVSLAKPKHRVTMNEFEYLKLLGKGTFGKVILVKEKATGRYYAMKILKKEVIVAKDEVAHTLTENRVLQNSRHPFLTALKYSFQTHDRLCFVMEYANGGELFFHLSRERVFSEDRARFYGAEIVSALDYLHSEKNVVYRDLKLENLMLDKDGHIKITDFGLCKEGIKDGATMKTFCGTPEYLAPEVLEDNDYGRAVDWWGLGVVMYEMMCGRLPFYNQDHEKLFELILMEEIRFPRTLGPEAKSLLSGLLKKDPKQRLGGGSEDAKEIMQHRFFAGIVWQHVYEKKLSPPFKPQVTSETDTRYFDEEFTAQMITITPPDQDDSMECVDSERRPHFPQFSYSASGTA

Compound | Activity
O=C(c1cccs1)N(CCCN1CCOCC1)c1nc(-c2coc3ccccc23)cs1 [N-(4-(benzofuran-3-yl)thiazol-2-yl)-N-(3-morpholinopropyl)thiophene-2-carboxamide] | AKT1
O=C(c1cccs1)N(CCCN1CCOCC1)c1nc(-c2ccc(-c3ccccc3)cc2)cs1 [N-(4-(biphenyl-4-yl)thiazol-2-yl)-N-(3-morpholinopropyl)thiophene-2-carboxamide] | AKT1
O=C(c1cccs1)N(CCCN1CCOCC1)c1nc(C2CCCCC2)cs1 [N-(4-cyclohexylthiazol-2-yl)-N-(3-morpholinopropyl)thiophene-2-carboxamide] | AKT1
O=C(c1cccs1)N(CCCN1CCOCC1)c1nc(C2CCCC2)cs1 [N-(4-cyclopentylthiazol-2-yl)-N-(3-morpholinopropyl)thiophene-2-carboxamide] | AKT1
O=C(c1ccco1)N(CCCCN1CCOCC1)c1nc(-c2cc(-c3ccccc3)no2)cs1 [N-(4-morpholinobutyl)-N-(4-(3-phenylisoxazol-5-yl)thiazol-2-yl)furan-2-carboxamide] | AKT1
O=C(c1cccs1)N(CCCCN1CCOCC1)c1nc(-c2cc(-c3ccccc3)no2)cs1 [N-(4-morpholinobutyl)-N-(4-(3-phenylisoxazol-5-yl)thiazol-2-yl)thiophene-2-carboxamide] | AKT1
O=C(c1cccs1)N(CCCN1CCCC1)c1nc(-c2ccccc2)cs1 [N-(4-phenylthiazol-2-yl)-N-(3-(pyrrolidin-1-yl)propyl)thiophene-2-carboxamide] | AKT1
Cc1nc(-c2cnccn2)sc1-c1csc(N(CCCN2CCOCC2)C(=O)c2cccs2)n1 [N-(4′-methyl-2′-(pyrazin-2-yl)-4,5′-bithiazol-2-yl)-N-(3-morpholinopropyl)thiophene-2-carboxamide] | AKT1
CCc1nnc(NC(=O)c2csc(N(CCCN3CCOCC3)C(=O)c3cccs3)n2)s1 [N-(5-ethyl-1,3,4-thiadiazol-2-yl)-2-(N-(3-morpholinopropyl)thiophene-2-carboxamido)thiazole-4-carboxamide] | AKT1
O=C(Nc1ccc2ncsc2c1)c1csc(N(CCCN2CCOCC2)C(=O)c2cccs2)n1 [N-(benzo[d]thiazol-6-yl)-2-(N-(3-morpholinopropyl)thiophene-2-carboxamido)thiazole-4-carboxamide] | AKT1
COc1ccc(-c2csc(N(Cc3ccco3)C(=O)c3cccs3)n2)cc1 [N-(furan-2-ylmethyl)-N-(4-(4-methoxyphenyl)thiazol-2-yl)thiophene-2-carboxamide] | AKT1
CCOC(=O)C1CCCCN1CCCN(C(=O)c1cccs1)c1nc(-c2cc3ccccc3o2)cs1 (centres unmarked) [ethyl 1-(3-(N-(4-(benzofuran-2-yl)thiazol-2-yl)thiophene-2-carboxamido)propyl)piperidine-2-carboxylate] | AKT1
CCOC(=O)C1CCCN(CCCN(C(=O)c2cccs2)c2nc(-c3cc4ccccc4o3)cs2)C1 (centres unmarked) [ethyl 1-(3-(N-(4-(benzofuran-2-yl)thiazol-2-yl)thiophene-2-carboxamido)propyl)piperidine-3-carboxylate] | AKT1
CCOC(=O)CC1CCCN(C(=O)CCCN(C(=O)c2cccs2)c2nc(-c3cc4ccccc4o3)cs2)C1 (centres unmarked) [ethyl 2-(1-(4-(N-(4-(benzofuran-2-yl)thiazol-2-yl)thiophene-2-carboxamido)butanoyl)piperidin-3-yl)acetate] | AKT1
CCOC(=O)CC1CCN(C(=O)CCCN(C(=O)c2cccs2)c2nc(-c3cc4ccccc4o3)cs2)CC1 [ethyl 2-(1-(4-(N-(4-(benzofuran-2-yl)thiazol-2-yl)thiophene-2-carboxamido)butanoyl)piperidin-4-yl)acetate] | AKT1
CCOC(=O)Cc1csc(NC(=O)c2csc(N(CCCN3CCOCC3)C(=O)c3cccs3)n2)n1 [ethyl 2-(2-(2-(N-(3-morpholinopropyl)thiophene-2-carboxamido)thiazole-4-carboxamido)thiazol-4-yl)acetate] | AKT1
CCOC(=O)CN1CCN(CCCN(C(=O)c2cccs2)c2nc(-c3cc4ccccc4o3)cs2)CC1 [ethyl 2-(4-(3-(N-(4-(benzofuran-2-yl)thiazol-2-yl)thiophene-2-carboxamido)propyl)piperazin-1-yl)acetate] | AKT1
CCOC(=O)c1csc(N(CCCN2CCOCC2)C(=O)c2cccs2)n1 [ethyl 2-(N-(3-morpholinopropyl)thiophene-2-carboxamido)thiazole-4-carboxylate] | AKT1
CCOC(=O)CC(C)(C)c1csc(N(CCCN2CCOCC2)C(=O)c2cccs2)n1 [ethyl 3-methyl-3-(2-(N-(3-morpholinopropyl)thiophene-2-carboxamido)thiazol-4-yl)butanoate] | AKT1
CCOC(=O)N1CCN(CCCN(C(=O)c2cccs2)c2nc(-c3cc4ccccc4o3)cs2)CC1 [ethyl 4-(3-(N-(4-(benzofuran-2-yl)thiazol-2-yl)thiophene-2-carboxamido)propyl)piperazine-1-carboxylate] | AKT1
CCOC(=O)c1cc(-c2csc(N(CCCN3CCOCC3)C(=O)c3cccs3)n2)on1 [ethyl 5-(2-(N-(3-morpholinopropyl)thiophene-2-carboxamido)thiazol-4-yl)isoxazole-3-carboxylate] | AKT1
COC(=O)C1CCCN1C(=O)CCN(C(=O)c1cccs1)c1nc(-c2cc3ccccc3o2)cs1 (centres unmarked) [methyl 1-(3-(N-(4-(benzofuran-2-yl)thiazol-2-yl)thiophene-2-carboxamido)propanoyl)pyrrolidine-2-carboxylate] | AKT1
COC(=O)C1CCCCN1CCCN(C(=O)c1cccs1)c1nc(-c2cc3ccccc3o2)cs1 (centres unmarked) [methyl 1-(3-(N-(4-(benzofuran-2-yl)thiazol-2-yl)thiophene-2-carboxamido)propyl)piperidine-2-carboxylate] | AKT1
COC(=O)C1CCCN1CCCN(C(=O)c1cccs1)c1nc(-c2cc3ccccc3o2)cs1 (centres unmarked) [methyl 1-(3-(N-(4-(benzofuran-2-yl)thiazol-2-yl)thiophene-2-carboxamido)propyl)pyrrolidine-2-carboxylate] | AKT1

Next, values leading:

Activity | Compound
AKT1 | COC(=O)C1CCN(C(=O)CCCN(C(=O)c2cccs2)c2nc(-c3cc4ccccc4o3)cs2)CC1 [methyl 1-(4-(N-(4-(benzofuran-2-yl)thiazol-2-yl)thiophene-2-carboxamido)butanoyl)piperidine-4-carboxylate]
AKT1 | COC(=O)C1CCCN1C(=O)CCCN(C(=O)c1cccs1)c1nc(-c2cc3ccccc3o2)cs1 (centres unmarked) [methyl 1-(4-(N-(4-(benzofuran-2-yl)thiazol-2-yl)thiophene-2-carboxamido)butanoyl)pyrrolidine-2-carboxylate]
AKT1 | COC(=O)CNC(=O)CCN(C(=O)c1cccs1)c1nc(-c2cc3ccccc3o2)cs1 [methyl 2-(3-(N-(4-(benzofuran-2-yl)thiazol-2-yl)thiophene-2-carboxamido)propanamido)acetate]
AKT1 | COC(=O)CNC(=O)CCCN(C(=O)c1cccs1)c1nc(-c2cc3ccccc3o2)cs1 [methyl 2-(4-(N-(4-(benzofuran-2-yl)thiazol-2-yl)thiophene-2-carboxamido)butanamido)acetate]
AKT1 | COC(=O)c1ccc(-c2csc(N(CCCN3CCOCC3)C(=O)c3cccs3)n2)cc1 [methyl 4-(2-(N-(3-morpholinopropyl)thiophene-2-carboxamido)thiazol-4-yl)benzoate]
AKT1 | COC(=O)c1ccc(-c2csc(N(CCCN3CCOCC3)C(=O)c3cccs3)n2)nc1 [methyl 6-(2-(N-(3-morpholinopropyl)thiophene-2-carboxamido)thiazol-4-yl)nicotinate]
AKT1 | CC(C)(C)OC(=O)NC1CCN(CCCN(C(=O)c2cccs2)c2nc(-c3cc4ccccc4o3)cs2)C1 (centres unmarked) [tert-butyl 1-(3-(N-(4-(benzofuran-2-yl)thiazol-2-yl)thiophene-2-carboxamido)propyl)pyrrolidin-3-ylcarbamate]
AKT1 | CC(C)(C)OC(=O)NC1CCN(C(=O)CCCN(C(=O)c2cccs2)c2nc(-c3cc4ccccc4o3)cs2)C1 (centres unmarked) [tert-butyl 1-(4-(N-(4-(benzofuran-2-yl)thiazol-2-yl)thiophene-2-carboxamido)butanoyl)pyrrolidin-3-ylcarbamate]
AKT1 | CC(C)(C)OC(=O)NCCNC(=O)CCCN(C(=O)c1cccs1)c1nc(-c2cc3ccccc3o2)cs1 [tert-butyl 2-(4-(N-(4-(benzofuran-2-yl)thiazol-2-yl)thiophene-2-carboxamido)butanamido)ethylcarbamate]
AKT1 | CC(C)(C)OC(=O)N1CCN(CCCN(C(=O)c2cccs2)c2nc(-c3cc4ccccc4o3)cs2)CC1 [tert-butyl 4-(3-(N-(4-(benzofuran-2-yl)thiazol-2-yl)thiophene-2-carboxamido)propyl)piperazine-1-carboxylate]
AKT1 | CC(C)(C)OC(=O)N1CCN(C(=O)CCCN(C(=O)c2cccs2)c2nc(-c3cc4ccccc4o3)cs2)CC1 [tert-butyl 4-(4-(N-(4-(benzofuran-2-yl)thiazol-2-yl)thiophene-2-carboxamido)butanoyl)piperazine-1-carboxylate]
